“Also recorded” adds a separate entry of the source.
What was measured:
human neutrophils = test: Human neutrophil migration (Transwell); assay type: cell-based
Experimental: Human peripheral blood neutrophils were isolated from healthy volunteer buffy coats. Initially, the majority of red blood cells were sedimented using 2% w/v dextran sulfate in a 0.9% NaCl solution for 15 min. Next, the upper phase was centrifuged for 10 min at 200g and the supernatant was discarded. The pellet was resuspended in 0.9% NaCl solution, and neutrophils were separated from here using Lymphoprep (STEMCELL Technologies #07851) and density-gradient centrifugation (400g for 30 min). Then, the remaining red blood cells were subjected to hypotonic lysis by addition of 10 mL of sterile water followed by addition of 10 mL of 1.8% NaCl solution. Cell count and viability were determined using trypan blue and a Countess cell counter. […]
Freshly isolated human peripheral neutrophils were used in migration assays using the Boyden style Corning HTS Transwell 96 well system with 3 μm pores (Corning #3385). […] Finally, the number of cells that had migrated to the bottom chamber was assessed using the ATPLite Luminescence assay system (PerkinElmer #6016943) according to the manufacturer’s instructions. Luminescence was measured on an LUMIstar Omega microplate reader (PerkinElmer). Experiments were performed in triplicate and analyzed using GraphPad Prism (version 9). Fold response was calculated as the relative migration of samples compared to the vehicle control.

[1] = Pharmacokinetic study in mice; assay type: in vivo; conditions: male, BALB/cAnC, mouse, plasma
Experimental: The study was performed by Bienta (www.bienta.net). Study design, animal selection, handling, and treatment were all in accordance with the Enamine PK study protocols and Institutional Animal Care and Use Guidelines. Animal treatment and plasma sample preparation were conducted by the Animal Laboratory personnel at Enamine/Bienta. Male BALB/cAnC mice (10–11 weeks old, body weight: 16.0–21.7 g and average body weight across all groups: 19.1 g, SD = 1.2 g) were used in this study. The animals were randomly assigned to the treatment groups before the pharmacokinetic study; all animals were fasted for 4 h before dosing. Intravenous (IV) and peroral (PO) routes of administration were done according to the following; eight time points for each route (3, 7, 15, 30, 60, 120, 240, and 480 min) for the IV route and (5, 10, 15, 30, 60, 120, 240, and 480 min) for the PO route were set for this pharmacokinetic study. Each of the time point treatment group included three animals. There was also one control animal. Compound 16l in the vehicle (DMSO–Cremophor EL–water w/5% mannitol, 1:1:8) was dosed at 10 mg/kg po and 5 mg/kg iv. Dosing volumes of compounds or vehicle were 5 mL/kg. Mice were injected iv with 2,2,2-tribromoethanol at a dose of 150 mg/kg prior to drawing the blood. Blood collection was performed from the orbital sinus in microtainers containing K3EDTA. Animals were sacrificed by cervical dislocation after the blood sample collection. Blood samples were centrifuged for 10 min at 3000 rpm. Before analysis, plasma samples (40 μL) were added 200 μL of a solution with transilast as the internal standard (200 ng/mL in water–methanol mixture 1:9, v/v). After mixing by pipetting and centrifuging for 4 min at 6000 rpm, 0.5 μL of each supernatant was analyzed by HPLC-MS/MS on an API 3000 PE instrument.

AUC(0-inf) ([1]; iv admin 5 mg/kg): 7350 ng·h/mL
Vd ([1]; iv admin 5 mg/kg): 0.4 L/kg
half-life ([1]; iv admin 5 mg/kg): 24 min
clearance ([1]; iv admin 5 mg/kg, read-out: CLtotal): 11 mL/min/kg
bioavailability ([1]; po 10 mg/kg vs iv 5 mg/kg): 44%
AUC(0-inf) ([1]; po admin 10 mg/kg): 6480 ng·h/mL
Cmax ([1]; po admin 10 mg/kg): 6240 ng/mL
Tmax ([1]; po admin 10 mg/kg): 30 min
Compound: COc1cccc(CC(=O)N[C@@H](Cc2ccc(C(F)(F)F)cc2)Cc2nnn[nH]2)c1 [Compound 16l, (S)-N-(1-(1H-Tetrazol-5-yl)-3-(4-(trifluoromethyl)phenyl)propan-2-yl)-2-(3-methoxyphenyl)acetamide]
effect on neutrophil migration induced by fMLP (human neutrophils; fMLP-induced): did not exhibit any effect
inhibition of propionate-induced neutrophil migration (human neutrophils; propionate (C3) 1 mM): completely inhibit; also recorded: fully inhibit migration; also recorded: complete inhibition

Source: paper PMC10547238, “Discovery of Potent Tetrazole Free Fatty Acid Receptor 2 Antagonists” (Journal of Medicinal Chemistry, 2023)
